The test system of one test is Arabidopsis aos mutant. It is filed as in vivo, Arabidopsis thaliana. As to conditions: for time after application at which aos mutant siliques started to elongate / time for aos mutant siliques to reach the wild-type silique size: after OPDA and MeJA spraying; for rescue of male sterile phenotype (silique elongation, fertility) of aos mutant: flower buds of 4 week old plants, twice a day for two days, 1% LA or 2 mM MeJA sprayed, 1 mM OPDA dipped, siliques monitored two weeks. As for the experimental part: Application of linolenic acid (LA; Cayman Chemical, USA) and methyl jasmonate (MeJA; Sigma-Aldrich, USA) to recover male sterility of Arabidopsis aos mutant was done by spraying 1% of LA and 2 mM MeJA directly on Arabidopsis flower buds of 4 week old plants grown under long day condition. Oxo-phytodienoic acid (OPDA; Cayman Chemical, USA) was applied by dipping of floral buds in the 1 mM OPDA and 0.01% TritonX-100 (Sigma-Aldrich, USA) solution. These plants were sprayed twice a day for two days. The plants were monitored for silique production over the next two weeks.
The AOS gene is important in jasmonate biosynthesis because it catalyzes the most upstream step in the JA-specific biosynthetic pathway (FIG. 1).

Test [1] concerns male-sterile mutant (dad1). To be noted: Ishiguro et al. (2001); cited from earlier work.
The test system of test [2] is triple mutant (fad3-2/fad7-2/fad8). To be noted: mutant lacking hexadecatrienoic acid (16:3) and LA (18:3); McConn and Browse (1996); cited from earlier work.

“Also recorded” adds a separate entry of the source.

Regarding `CC/C=C\CC1C(=O)CCC1CC(=O)OC` (stereo not drawn) [MeJA, methyl jasmonate], in the test with Arabidopsis aos mutant, the “time after application at which aos mutant siliques started to elongate” value was “Two”; the “time for aos mutant siliques to reach the wild-type silique size” value is on record as “in a week”; the “rescue of male sterile phenotype (silique elongation, fertility) of aos mutant” value was “rescued to wild-type; also recorded: can rescue the aos male sterile phenotype”.
On the same counts, the results for `CC/C=C\C[C@@H]1C(=O)C=C[C@@H]1CCCCCCCC(=O)O` [OPDA, Oxo-phytodienoic acid] are “Two”, “in a week” and “rescued to wild-type”.
Consider `CC/C=C\C[C@H]1C(=O)CC[C@@H]1CC(=O)O` [jasmonic acid, Jasmonic acid], for which, in test [1], the “rescue of sterility phenotype” value is recorded as “could be rescued”. Further, the “rescue of male sterility” value in test [2] is given as “could be rescued”. Also, in the test on Arabidopsis aos mutant, the “rescue of male sterile phenotype (silique elongation, fertility) of aos mutant” value was “restoration of essentially wild-type siliques and recovered fertility”.

(Values after patent US7132590B2, “Methods of making male-sterile plants by underexpressing allene oxide synthase” (The Arizona Board of Regents on Behalf of the University of …, priority 2001, dated 2006).)
